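Cells were grown in 96-well plates and exposed to each compound for 48 hours at five concentrations; endpoints were interpolated linearly between bracketing concentrations, or set to the highest concentration if not reached. Abbreviation: GI50, concentration required for 50% inhibition of growth. TGI: concentration producing complete growth inhibition.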
Key:
Test in all cases: NCI anticancer screen, dose series, 48 h
[1] = tested on: SN12C renal
[2] = tested on: M14 melanoma
[3] = tested on: SK-MEL-5 melanoma
[4] = tested on: HCT-116 colon
[5] = tested on: MALME-3M melanoma
[6] = tested on: U251 CNS
[7] = tested on: HCT-15 colon
[8] = tested on: RXF 393 renal
[9] = tested on: BT-549 breast
[10] = tested on: SK-MEL-2 melanoma

SMILES | TGI [1] [µM] | TGI [2] [µM] | TGI [3] [µM] | TGI [4] [µM] | TGI [5] [µM] | TGI [6] [µM] | TGI [7] [µM] | TGI [8] [µM] | GI50 [1] [µM] | GI50 [2] [µM] | GI50 [3] [µM] | GI50 [4] [µM] | GI50 [5] [µM] | GI50 [6] [µM] | GI50 [7] [µM] | GI50 [9] [µM] | TGI [9] [µM] | GI50 [10] [µM] | TGI [10] [µM] | GI50 [8] [µM]
CCOC(=O)/C(C#N)=C(O)/C(=C\c1ccc(Br)cc1)NC(=O)c1ccccc1 | > 100 | > 100 | > 100 | 34.5 | > 100 | > 100 | > 100 |  |  |  |  |  |  |  |  |  |  |  |  | 
CCN(CC)c1ccc2c(c1)Oc1ccc(N(CC)CC)cc1C21Oc2ccccc2-c2c1c1ccccc1n2CC (stereo not drawn) | > 100 | > 100 | 25.3 | > 100 | 9.27 | > 100 | > 100 | > 100 |  |  |  |  |  |  |  |  |  |  |  | 
N#CC1=C(/N=C/c2ccccc2)Oc2c(ccc3ccccc23)C1c1ccccc1 (stereo not drawn) | > 100 | > 100 | 2.5 | > 47.8 | > 100 | > 100 | > 100 |  | 0.822 | 0.484 | 0.378 | 0.427 | 0.67 | 0.527 | 0.494 | 0.951 | > 24.5 | 1.41 | > 100 | 
Cc1ccc(NC(=O)CC2C(=O)Nc3ccccc3S2(=O)=O)c(C)c1 (stereo not drawn) | 39.3 | 26.2 | 19.5 | 24.9 | 45.9 | 25.8 | 30.3 | 41 |  |  |  |  |  |  |  |  |  |  | 73.8 | 
COc1cc2c(cc1OCCCCN1CCN(C(=S)SCCC(C#N)(c3ccccc3)c3ccccc3)CC1)N=C[C@@H]1CCCN1C2=O | 4.54 |  | 2.82 |  | 3.04 | 2.66 | 3.9 | 2.01 | 1.16 |  | 1.11 |  | 1.36 | 1.11 | 1.41 | 1.42 | 8.84 | 1.04 | 2.35 | 0.414
COc1cc2c(cc1OC)-c1ncc3c(OC)c(OC)c(OC)cc3c1C2 |  | > 100 | > 100 | 64.7 |  | 33 | 44.5 |  |  | > 100 | 23.5 | 8.81 |  | 15.8 | 13.7 |  |  | 0.0541 | 23.5 | 
Cc1nc(C(=O)O)c2ccccc2n1 | > 100 |  | > 100 | > 100 | > 100 | > 100 |  | > 100 |  |  |  |  |  |  |  |  |  |  | > 100 | 
NC(=O)NNC(=O)NC12CC3CC(CC(C3)C1)C2 | > 100 | > 100 | > 100 | > 100 | > 100 | > 100 | > 100 | > 100 |  |  |  |  |  |  |  |  |  |  | > 100 | 
Cc1ccc(C)c(N2C(=O)C(=O)C(c3nc4ccccc4s3)/C(=N/NC(=O)NN)C2=O)c1 (stereo not drawn) | > 100 | > 100 | > 100 | > 100 | > 100 | > 100 | > 100 | > 100 |  |  |  |  |  |  |  |  |  |  | > 100 | 
O=C1Nc2ccccc2N=CC1NC(=O)C(c1ccccc1)c1ccccc1 (stereo not drawn) | > 100 | > 100 | > 100 | > 100 | > 100 | > 100 | > 100 | > 100 |  |  |  |  |  |  |  |  |  |  | > 100 | 
COc1ccc(N(CC(=O)NCCC[Te]c2ccccc2)C(=O)CNC(=O)OC(C)(C)C)cc1 | 4.97 | 10.6 | 9.13 | 6.45 | 32.8 | 6.51 | 11.7 |  | 2.06 | 3.53 | 3.13 | 2.07 | 15.7 | 2.37 | 3.15 | 1.68 | 4.86 | 2.99 | 6.77 | 
C=C1CCC2[C@@H](CCC3[C@]2(C)CCC[C@]3(C)C(=O)OC)C1CC=O (stereo partly drawn) | 36.7 | 30.6 | 33.9 | 29.4 | 37.5 | 33.5 | 43.6 |  |  |  |  |  |  | 17.8 |  |  |  |  | 38.2 | 
O=C(CC1SC(=Nc2ccccc2Cl)NC1=O)Nc1ccc(Cl)cc1Cl (stereo not drawn) | > 100 | > 100 | > 100 | > 100 | > 100 | > 100 |  | > 100 |  |  |  |  |  |  |  |  |  |  | > 100 | 
O=C(O)/C=C/c1nc2ccccc2c(=O)o1 | > 100 | > 100 | > 100 | > 100 |  | > 100 | > 100 |  |  |  |  |  |  |  |  |  |  |  | > 100 | 
C/C(=C\c1cnc(C)s1)[C@@H]1C[C@@H]2O[C@@H]2CCC[C@H](C)[C@H](O)[C@@H](C)C(=O)C(C)(C)[C@@H](O)CC(=O)O1 | > 100 |  | > 100 | > 100 |  | > 100 | > 100 | > 100 | < 0.01 |  | < 0.01 | < 0.01 |  | < 0.01 | < 0.01 | < 0.01 | > 100 | < 0.0146 | > 100 | < 0.01
COC(=O)[C@@]1(C(C)CC(=O)O)CCCCC1=O (stereo partly drawn) | > 100 | > 100 | > 100 | > 100 | > 100 | > 100 | > 100 | > 100 |  |  |  |  |  |  |  |  |  |  | > 100 | 
O=S(=O)(/C=C/C(=C/c1ccccc1)S(=O)(=O)c1ccccc1)c1ccccc1 | 3.43 | 2.57 |  | 3.13 | 3.3 | 3.27 | 3.3 | 3.19 |  |  |  |  |  |  |  |  |  |  | 3.54 | 
COc1ccc(CCC2c3cc(OC)c(OC)cc3CCN2C)cc1OC (stereo not drawn) | > 100 | > 100 | > 100 | > 100 | > 100 | > 100 | > 100 | > 100 |  |  |  |  |  |  |  |  |  |  | > 100 | 
C=CNC(=O)NC(=O)CSc1nnc(-c2ccccc2NC(=O)C(F)(F)F)c(=O)[nH]1 | > 100 | > 100 | 2.06 | > 100 | 28.8 | > 100 | > 100 | > 100 |  |  |  |  |  |  |  |  |  |  | > 100 | 
CC1(c2ccccc2Cl)C(C#N)C(=O)NC(=O)C1C#N (stereo not drawn) | > 100 | > 100 | 74.2 |  | > 100 |  | > 100 | > 100 |  |  |  |  |  |  |  |  |  |  | > 100 | 
Nc1c([N+](=O)[O-])nc(Cl)c2nncn12 | > 100 | > 100 | > 100 | > 63.9 | > 100 | > 100 | 42.4 | > 100 |  |  |  |  |  |  |  |  |  |  | > 100 | 
